IC50 data for 51 compounds are collected here from patent US10611750B2, “Tetrahydroquinoline compositions as bet bromodomain inhibitors” (FORMA Therapeutics, Inc., priority 2013, dated 2020).

Assay [1] concerns acute myelocytic leukemia (AML) cell line MV4-11. Description: Oncology cell growth assay (3-day proliferation, CellTiter-Glo). As to conditions: Homo sapiens, MV4-11 cells, 3000 cells/well, 72 hours, compounds listed under IC50 range headings, read-out: MV411 IC50 (gIC50, inhibition of proliferation). It is filed as cell-based. The method, boiled down: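 MV4-11 AML cells (RPMI 1640, 10% FBS) plated at 3000 cells/well and exposed 72 h to compound at final 10 to 0.0045 μM (3-fold series). Viability read by CellTiter-Glo luminescence; gIC50 from four-parameter logistic fit between DMSO control and no-cell background.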

Assay [2] deals with T1, BRD4 Bromodomain 2 (BRD4 BD2) (Homo sapiens, UniProt O60885).
T1 construct: 333-460 were cloned, expressed, and purified to homogeneity
Briefly: AlphaScreen binding assay, BRD4 BD2. As to conditions: His-tagged BRD4 BD2 100 nM, biotinylated H4 (1-21) K5/8/12/16 tetra-acetylated peptide 100 nM, compounds listed under IC50 range headings. In a few lines:
(§1)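 An AlphaScreen competition format was used with His-BRD4 BD1 or BD2 and biotin-H4 K5/8/12/16-acetyl peptide, each at matched final levels of 50 nM (BD1) or 100 nM (BD2). Incubation in HEPES/NaCl buffer with 0.1% BSA and 0.01% Triton X-100 ran ≥1 h before IC50 determination.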
(In Alpha technology, singlet oxygen from a donor bead excites a nearby acceptor bead.)

In assay [3] the target is T2, BRD4 Bromodomain 1 (BRD4 BD1) (Homo sapiens, UniProt O60885).
T2 construct: 44-168 and BRD4 BD2
Description: AlphaScreen binding assay, BRD4 BD1. As to conditions: His-tagged BRD4 BD1 50 nM, biotinylated H4 (1-21) K5/8/12/16 tetra-acetylated peptide 50 nM, compounds listed under IC50 range headings. The method, boiled down:
as §1

Regarding `CC(=O)N1c2ccc(-c3cnn(C4CC4)c3)c(O[C@H](F)C(N)=O)c2CC[C@@H]1C` (single isomer, unassigned) [I-63], the IC50 in assay [1] is more than 1 µM; in assay [2], 0.05 to 0.5 µM; in assay [3], 1 to 10 µM.
Consider `CCCOc1c(-c2cnn(CCS(C)(=O)=O)c2)ccc2c1CC[C@H](C)N2C(=O)OC` [I-441], for which the figures for the IC50 in assay [2] and in assay [3] were 0.05 to 0.5 µM and 1 to 10 µM, respectively.
For `COC(=O)N1c2ccc(-c3cnn(CCS(C)(=O)=O)c3)c(OCC3CCOCC3)c2CC[C@@H]1C` [I-448] the same measures were 0.05 to 0.5 µM and 1 to 10 µM.
The matching figures for `COC(=O)N1c2ccc(-c3cnn(CCO)c3)c(OCC3CCOCC3)c2CC[C@@H]1C` [I-450]: 0.05 to 0.5 µM and 1 to 10 µM.
For `COC(=O)N1c2ccc(-c3cnn(C4CCNCC4)c3)c(OCC3CCOCC3)c2CC[C@@H]1C` [I-451] the same measures were 0.05 to 0.5 µM and 1 to 10 µM.
On to `COC(=O)N1c2ccc(-c3cnn(CCS(C)(=O)=O)c3)c(OCC(=O)N(C)C)c2CC[C@@H]1C` [I-452], for which the IC50 in assay [2] was in the range of 0.05 to 0.5 µM; in assay [3], 1 to 10 µM.
For the compound `COC(=O)N1c2ccc(-c3cnn(CC(C)(C)O)c3)c(OCC(=O)N(C)C)c2CC[C@@H]1C` [I-453], the IC50 in assay [2] lay in the range of 0.05 to 0.5 µM; in assay [3] it was 1 to 10 µM.
For `COC(=O)N1c2ccc(-c3cnn(C4CCNCC4)c3)c(OCC(=O)N(C)C)c2CC[C@@H]1C` [I-454] the same measures were 0.05 to 0.5 µM and 1 to 10 µM.
With `COC(=O)N1c2ccc(-c3cnn(CCS(C)(=O)=O)c3)c(OCC(C)C)c2CC[C@@H]1C` [I-455], the IC50 was 0.05 to 0.5 µM in assay [2] and 1 to 10 µM in assay [3].
As for `COC(=O)N1c2ccc(-c3cnn(CC(C)(C)O)c3)c(OCC(C)C)c2CC[C@@H]1C` [I-456], the results for the IC50 in assay [2] and in assay [3] were 0.05 to 0.5 µM and 1 to 10 µM, respectively.
For the compound `COC(=O)N1c2ccc(-c3cnn(CCO)c3)c(OCC(C)C)c2CC[C@@H]1C` [I-457], the IC50 fell in the range of 0.05 to 0.5 µM in assay [2] and 1 to 10 µM in assay [3].
Consider `COC(=O)N1c2ccc(-c3cnn(CC(C)(C)O)c3)c(OCC3CCCC3)c2CC[C@@H]1C` [I-460], for which the values for the IC50 in assay [2] and in assay [3] were 0.05 to 0.5 µM and 1 to 10 µM, respectively.
The matching figures for `COC(=O)N1c2ccc(-c3cnn(CCS(C)(=O)=O)c3)c(OCC(=O)N3CCCC3)c2CC[C@@H]1C` [I-463]: 0.05 to 0.5 µM and 1 to 10 µM.
For `COC(=O)N1c2ccc(-c3cnn(CC(C)(C)O)c3)c(OCC(=O)N3CCCC3)c2CC[C@@H]1C` [I-464] the same measures were 0.05 to 0.5 µM and 1 to 10 µM.
On to `COC(=O)N1c2ccc(-c3cnn(CCO)c3)c(OCC(=O)N3CCCC3)c2CC[C@@H]1C` [I-465], for which the IC50 in assay [2] lay within 0.05 to 0.5 µM; in assay [3], 1 to 10 µM.
As for `COC(=O)N1c2ccc(-c3cnn(CCS(C)(=O)=O)c3)c(OC[C@H]3CCC(=O)N3)c2CC[C@@H]1C` [I-467], the IC50 in assay [2] is 0.05 to 0.5 µM; in assay [3] it was 1 to 10 µM.
For `COC(=O)N1c2ccc(-c3cnn(CC(C)(C)O)c3)c(OC[C@H]3CCC(=O)N3)c2CC[C@@H]1C` [I-468], the IC50 in assay [2] was 0.05 to 0.5 µM; in assay [3] it was 1 to 10 µM.
Take `COC(=O)N1c2ccc(-c3cnn(CCO)c3)c(OC[C@H]3CCC(=O)N3)c2CC[C@@H]1C` [I-469]: the IC50 is 0.05 to 0.5 µM in assay [2] and 1 to 10 µM in assay [3].
As for `COC(=O)N1c2ccc(-c3cnn(C4CCNCC4)c3)c(OC[C@H]3CCC(=O)N3)c2CC[C@@H]1C` [I-470], the results for the IC50 in assay [2] and in assay [3] were 0.05 to 0.5 µM and 1 to 10 µM, respectively.
In the case of `COC(=O)N1c2ccc(-c3cnn(CCS(C)(=O)=O)c3)c(OCCN(C)S(C)(=O)=O)c2CC[C@@H]1C` [I-471], the IC50 lay in the range of 0.05 to 0.5 µM in assay [2] and 1 to 10 µM in assay [3].
For the compound `COC(=O)N1c2ccc(-c3cnn(CC(C)(C)O)c3)c(OCCN(C)S(C)(=O)=O)c2CC[C@@H]1C` [I-472], the values for the IC50 in assay [2] and in assay [3] were 0.05 to 0.5 µM and 1 to 10 µM, respectively.
The matching figures for `COC(=O)N1c2ccc(-c3cnn(CCO)c3)c(OCCN(C)S(C)(=O)=O)c2CC[C@@H]1C` [I-473]: 0.05 to 0.5 µM and 1 to 10 µM.
For the compound `COC(=O)N1c2ccc(-c3cnn(C4CCNCC4)c3)c(OCCN(C)S(C)(=O)=O)c2CC[C@@H]1C` [I-474], the IC50 in assay [2] was in the range of 0.05 to 0.5 µM; in assay [3], 1 to 10 µM.
On to `COC(=O)N1c2ccc(-c3cnn(CCS(C)(=O)=O)c3)c(OC[C@H]3CCNC3)c2CC[C@@H]1C` [I-475], for which the IC50 was in the range of 0.05 to 0.5 µM in assay [2] and 1 to 10 µM in assay [3].
For `COC(=O)N1c2ccc(-c3cnn(C4CCNCC4)c3)c(OC[C@H]3CCNC3)c2CC[C@@H]1C` [I-477], the IC50 in assay [2] fell in the range of 0.05 to 0.5 µM; in assay [3], 1 to 10 µM.
For `CC(=O)N1c2ccc(-c3cnn(C4CC4)c3)c(OCc3ncc(C)o3)c2CC[C@@H]1C` [I-478] the same measures were 0.05 to 0.5 µM and 1 to 10 µM.
As for `CC(=O)N1c2ccc(-c3cnn(C4CC4)c3)c(OCc3nc4ccccc4o3)c2CC[C@@H]1C` [I-481], the IC50 was not below 0.5 µM in assay [2] and not below 10 µM in assay [3].
The matching figures for `CCCOc1c(-c2ccc(S(C)(=O)=O)cc2)ccc2c1CC[C@H](C)N2C(C)=O` [I-482]: not below 0.5 µM and 1 to 10 µM.
For `CC(=O)N1c2ccc(-c3ccc(S(C)(=O)=O)cc3)c(OCC(=O)N(C)C)c2CC[C@@H]1C` [I-483] the same measures were not below 0.5 µM and 1 to 10 µM.
With `CCCOc1c(-c2ccc(S(=O)(=O)CC)cc2)ccc2c1CC[C@H](C)N2C(C)=O` [I-484], the values for the IC50 in assay [2] and in assay [3] were 0.05 to 0.5 µM and 1 to 10 µM, respectively.
Take `CCS(=O)(=O)c1ccc(-c2ccc3c(c2OCC(=O)N(C)C)CC[C@H](C)N3C(C)=O)cc1` [I-485]: the IC50 in assay [2] is not below 0.5 µM; in assay [3] it was 1 to 10 µM.
As to `CCCOc1c(-c2cccc(C(=O)N3CCOCC3)c2)ccc2c1CC[C@H](C)N2C(C)=O` [I-488], the IC50 in assay [2] fell in the range of 0.05 to 0.5 µM; in assay [3], 1 to 10 µM.
In the case of `CC(=O)N1c2ccc(-c3cccc(C(=O)N4CCOCC4)c3)c(OCC(=O)N(C)C)c2CC[C@@H]1C` [I-489], the values for the IC50 in assay [2] and in assay [3] were not below 0.5 µM and not below 10 µM, respectively.
Take `CCCOc1c(-c2cccc(NS(C)(=O)=O)c2)ccc2c1CC[C@H](C)N2C(C)=O` [I-490]: the results for the IC50 in assay [2] and in assay [3] were 0.05 to 0.5 µM and 1 to 10 µM, respectively.
Turning to `CCCOc1c(-c2cccc(S(C)(=O)=O)c2)ccc2c1CC[C@H](C)N2C(C)=O` [I-492], the results for the IC50 in assay [2] and in assay [3] were 0.05 to 0.5 µM and 1 to 10 µM, respectively.
The matching figures for `CC(=O)N1c2ccc(-c3cccc(S(C)(=O)=O)c3)c(OCC(=O)N(C)C)c2CC[C@@H]1C` [I-493]: not below 0.5 µM and 1 to 10 µM.
As for `CCCOc1c(-c2ccc(NS(C)(=O)=O)cc2)ccc2c1CC[C@H](C)N2C(C)=O` [I-494], the values for the IC50 in assay [2] and in assay [3] were 0.05 to 0.5 µM and 1 to 10 µM, respectively.
Take `CC(=O)N1c2ccc(-c3ccc(NS(C)(=O)=O)cc3)c(OCC(=O)N(C)C)c2CC[C@@H]1C` [I-495]: the IC50 in assay [2] was not below 0.5 µM; in assay [3] it was 1 to 10 µM.
For `CCCOc1c(-c2ccc(C(=O)N3CCOCC3)cc2)ccc2c1CC[C@H](C)N2C(C)=O` [I-496] the same measures were 0.05 to 0.5 µM and 1 to 10 µM.
Consider `CC(=O)N1c2ccc(-c3ccc(C(=O)N4CCOCC4)cc3)c(OCC(=O)N(C)C)c2CC[C@@H]1C` [I-497], for which the IC50 in assay [2] was 0.05 to 0.5 µM; in assay [3], 1 to 10 µM.
Consider `CCCOc1c(-c2ccc(N3CCCS3(=O)=O)cc2)ccc2c1CC[C@H](C)N2C(C)=O` [I-498], for which the values for the IC50 in assay [2] and in assay [3] were 0.05 to 0.5 µM and 1 to 10 µM, respectively.
For `CC(=O)N1c2ccc(-c3ccc(N4CCCS4(=O)=O)cc3)c(OCC(=O)N(C)C)c2CC[C@@H]1C` [I-499] the same measures were 0.05 to 0.5 µM and 1 to 10 µM.
For `CCCOc1c(-c2ccc3c(c2)CCN3S(C)(=O)=O)ccc2c1CC[C@H](C)N2C(C)=O` [I-500] the same measures were 0.05 to 0.5 µM and 1 to 10 µM.
The matching figures for `CCCOc1c(-c2ccc(N(C)S(C)(=O)=O)cc2)ccc2c1CC[C@H](C)N2C(C)=O` [I-502]: 0.05 to 0.5 µM and 1 to 10 µM.
With `CC(=O)N1c2ccc(-c3ccc(N(C)S(C)(=O)=O)cc3)c(OCC(=O)N(C)C)c2CC[C@@H]1C` [I-503], the IC50 in assay [2] is 0.05 to 0.5 µM; in assay [3] it was 1 to 10 µM.
Regarding `CC(=O)N1c2ccc(-c3cnn(CCO)c3)c(Oc3nc(C)cc(C)n3)c2CC[C@@H]1C` [I-544], the IC50 was in the range of 0.05 to 0.5 µM in assay [2] and 1 to 10 µM in assay [3].
The matching figures for `CC(=O)N1c2ccc(-c3cnn(C4COC4)c3)c(OC[C@H]3CCNC3)c2CC[C@@H]1C` [I-601]: 0.05 to 0.5 µM and 1 to 10 µM.
Consider `CC(=O)N1c2ccc(-c3cnn(CC(C)(C)O)c3)c(OC[C@H]3CCNC3)c2CC[C@@H]1C` [I-604], for which the results for the IC50 in assay [2] and in assay [3] were not below 0.5 µM and 1 to 10 µM, respectively.
The matching figures for `CCCOc1cccc2c1CC[C@H](C)N2C(C)=O` [I-605]: not below 0.5 µM and not below 10 µM.
For `CC(=O)N1c2cccc(OCC(=O)N(C)C)c2CC[C@@H]1C` [I-606] the same measures were not below 0.5 µM and not below 10 µM.
For `CC(=O)N1c2cccc(OCC3CCCC3)c2CC[C@@H]1C` [I-607], the IC50 in assay [2] was not below 0.5 µM; in assay [3], not below 10 µM.
